Data taken from patent publication US9801373B2, “Compounds for alleviating phosphate starvation symptoms in plants” (Commissariat a l'Energie Atomique et aux Energies …, priority 2012, dated 2017).

Test system: PHT1;4 expression
Test: Chemical genetics screen, GUS staining of pht1;4-1 reporter line
Format: in vivo, Arabidopsis thaliana
Conditions: 25 μM, 5 days on −Pi
Source text: A “chemical genetics” approach has been carried out to isolate compounds that inhibit the phosphate (Pi) response in Arabidopsis thaliana. Compounds were screened for their ability to inhibit the expression of a phosphate starvation marker, namely the high affinity Pi transporter PHT1,4 gene. For the screening, the A. thaliana pht1;4-1 line (ecotype Wassilewskija) was chosen (Misson et al., 2004). It contains a T-DNA construct inserted into Pht1;4 gene creating a transcriptional fusion with a GUS reporter gene. For phenotypic analyses, A. thaliana Columbia and various lines derived from this ecotype were used. They are either transgenic lines expressing reporter gene as cycB1::GUS (Colón Carmona et al., 1999), MGD3::LUC, PHT1;4::LUC, At1g73010::LUC or various mutants affecting root response to low Pi such as: pdr2 (Ticconi et al., 2004), lpr1, lpr2 (Svistoonoff et al., 2007), lpi1, lpi2 and lpi3 (Sanchez-Calderon et al., 2006).
For the screening, the LATCA collection of 3600 biologically active compounds (Zhao et al., 2007) was used at a final concentration of 25 μM in 1% DMSO. Four to five Arabidopsis seeds of pht1;4-1 (Misson et al., 2004) reporter line were sown in 96-well plates containing 100 μL liquid MS/10 medium with 500 μM of Pi at pH 5.7. After 2 days at 4° C., plants were grown for five days in a culture chamber under a 16 h light/8 h dark regime (24/21° C., 150 μE m^−2s^−1). Medium was then replaced by MS/10 with only 5 μM Pi and the tested compounds were added to the 96-well plates. […] Five days later, plantlets were analysed by GUS staining to assay the activity of the reporter gene inserted in pht1;4 gene. […] Then, plates were analysed using a MZ16 stereomicroscope (Leica microsystems, Germany).
The GUS activity was detected as previously described by Jefferson et al. (1987), using a GUS staining solution containing 50 mM sodium phosphate buffer pH 7.0; 0.01% Triton X-100, 1 mM K3Fe(CN)6, 1 mM K4Fe(CN)6, 1 mg/ml 5-bromo-4-chloro-3-indolyl B-D-glucuronide (X-Gluc). […]

## O=c1c(Sc2ccc(Cl)cc2)c(Sc2ccc(Cl)cc2)c1=O [PTN1]
  toxicity as cause of reduced reporter gene expression: not explained by toxicity
